Test results: US9777008B2, “PRMT5 inhibitors and uses thereof” (Epizyme, Inc., priority 2012, dated 2017)
pIC50: −log10 of the molar value.

Molecular target: PRMT5/MEP50 (Homo sapiens (Human), UniProt O14744)
Assay: PRMT5 Biochemical Assay (PRMT5/MEP50 enzyme assay on peptide substrate, 3H-SAM Flashplate)
Source text: S-adenosylmethionine (SAM), S-adenosylhomocysteine (SAH), bicine, KCl, Tween20, dimethylsulfoxide (DMSO), bovine skin gelatin (BSG), and Tris(2-carboxyethyl)phosphine hydrochloride solution (TCEP) were purchased from Sigma-Aldrich at the highest level of purity possible. ^3H-SAM was purchase from American Radiolabeled Chemicals with a specific activity of 80 Ci/mmol. 384-well streptavidin Flashplates were purchased from PerkinElmer.
Peptide representative of human histone H4 residues 1-15 was synthesized with a C-terminal linker-affinity tag motif and a C-terminal amide cap by 21st Century Biochemicals. The peptide was high high-performance liquid chromatography (HPLC) purified to greater than 95% purity and confirmed by liquid chromatography mass spectrometry (LC-MS). The sequence was Ac-[…][K-Biot]-amide (SEQ ID NO.:3).
Molecular Biology: Full-length human PRMT5 (NM_006109.3) transcript variant 1 clone was amplified from a fetal brain cDNA library, incorporating flanking 5′ sequence encoding a FLAG tag ([…]) (SEQ ID NO.:4) fused directly to Ala 2 of PRMT5. Full-length human MEP50 (NM_024102) clone was amplified from a human testis cDNA library incorporating a 5′ sequence encoding a 6-histidine tag (MHHHHHH) (SEQ ID NO.:5) fused directly to Arg 2 of MEP50. The amplified genes were sublconed into pENTR/D/TEV (Life Technologies) and subsequently transferred by Gateway™ attL×attR recombination to pDEST8 baculvirus expression vector (Life Technologies).
Recombinant baculovirus and Baculovirus-Infected Insect Cells (BIIC) were generated according to Bac-to-Bac kit instructions (Life Technologies) and Wasilko, 2006, respectively. Protein over-expression was accomplished by infecting exponentially growing Spodoptera frugiperda (SF9) cell culture at 1.2×10^6 cell/ml with a 5000 fold dilution of BIIC stock. Infections were carried out at 27° C. for 72 hours, harvested by centrifugation, and stored at −80° C. for purification.
Flag-PRMT5/6His-MeP50 was eluted with 300 mM Imidazole in the same buffer. The purity of recovered protein was 87%. Reference: Wasilko, D. J. and S. E. Lee: “TIPS: titerless infected-cells preservation and scale-up” Bioprocess J., 5 (2006), pp. 29-32.
General Procedure for PRMT5/MEP50 Enzyme Assays on Peptide Substrates.
The assays were all performed in a buffer consisting of 20 mM Bicine (pH=7.6), 1 mM TCEP, 0.005% BSG, and 0.002% Tween20, prepared on the day of use. Compounds in 100% DMSO (1 ul) were spotted into a polypropylene 384-well V-bottom plates (Greiner) using a Platemate Plus outfitted with a 384-channel head (Thermo Scientific). DMSO (1 ul) was added to Columns 11, 12, 23, 24, rows A-H for the maximum signal control and 1 ul of SAH, a known product and inhibitor of PRMT5/MEP50, was added to columns 11, 12, 23, 24, rows I-P for the minimum signal control. A cocktail (40 ul) containing the PRMT5/MEP50 enzyme and the peptide was added by Multidrop Combi (Thermo-Fisher). The compounds were allowed to incubate with PRMT5/MEP50 for 30 min at 25 degrees Celsius, then a cocktail (10 ul) containing ^3H-SAM was added to initiate the reaction (final volume=51 ul). The final concentrations of the components were as follows: PRMT5/MEP50 was 4 nM, ^3H-SAM was 75 nM, peptide was 40 nM, SAH in the minimum signal control wells was 100 uM, and the DMSO concentration was 1%. The assays were stopped by the addition of non-radioactive SAM (10 ul) to a final concentration of 600 uM, which dilutes the ^3H-SAM to a level where its incorporation into the peptide substrate is no longer detectable. 50 ul of the reaction in the 384-well polypropylene plate was then transferred to a 384-well Flashplate and the biotinylated peptides were allowed to bind to the streptavidin surface for at least 1 hour before being washed three times with 0.1% Tween20 in a Biotek ELx405 plate washer. […]

PRMT5/MEP50, sequence (O14744 other isoform, or with tags, fused parts or gaps): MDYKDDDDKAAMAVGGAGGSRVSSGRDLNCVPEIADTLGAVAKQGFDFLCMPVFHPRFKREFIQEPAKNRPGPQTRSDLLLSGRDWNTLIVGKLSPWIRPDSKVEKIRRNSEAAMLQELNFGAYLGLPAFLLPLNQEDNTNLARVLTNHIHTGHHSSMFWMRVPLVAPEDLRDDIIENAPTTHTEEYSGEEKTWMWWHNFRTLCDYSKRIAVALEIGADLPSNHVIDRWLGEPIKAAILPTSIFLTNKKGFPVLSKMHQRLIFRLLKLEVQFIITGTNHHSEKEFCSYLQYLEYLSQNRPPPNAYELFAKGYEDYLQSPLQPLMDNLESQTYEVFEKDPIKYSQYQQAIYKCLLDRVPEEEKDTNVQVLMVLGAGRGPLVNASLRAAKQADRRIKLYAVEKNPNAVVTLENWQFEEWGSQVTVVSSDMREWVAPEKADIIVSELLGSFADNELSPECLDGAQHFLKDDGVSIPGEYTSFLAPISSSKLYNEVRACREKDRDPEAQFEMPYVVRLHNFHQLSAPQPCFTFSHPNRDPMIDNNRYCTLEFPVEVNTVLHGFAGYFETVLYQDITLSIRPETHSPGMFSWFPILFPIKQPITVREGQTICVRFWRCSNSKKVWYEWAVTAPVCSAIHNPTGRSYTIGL
PRMT5/MEP50, sequence (Q9BQA1 other isoform, or with tags, fused parts or gaps partner): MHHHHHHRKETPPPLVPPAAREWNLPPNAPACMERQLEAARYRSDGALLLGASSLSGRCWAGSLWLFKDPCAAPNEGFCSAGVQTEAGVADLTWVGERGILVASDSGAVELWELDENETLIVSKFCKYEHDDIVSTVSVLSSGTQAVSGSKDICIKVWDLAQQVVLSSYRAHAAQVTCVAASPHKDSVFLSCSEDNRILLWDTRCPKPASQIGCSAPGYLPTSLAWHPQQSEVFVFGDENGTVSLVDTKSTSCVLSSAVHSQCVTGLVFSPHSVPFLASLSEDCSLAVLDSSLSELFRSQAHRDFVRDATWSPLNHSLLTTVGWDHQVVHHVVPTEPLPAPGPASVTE

**Q.** With `O=C(Cn1ccc2cnc(-c3ccnc(NCC(O)CN4CCc5ccccc5C4)c3)nc21)N1CCCC1` (centres unmarked) [Compound 233] as the compound, how does the pIC50 read?
**A.** > 7.00

**Q.** With `O=C(Cn1ccc2cnc(-c3ccnc(NCC(O)CN4CCc5ccccc5C4)c3)nc21)N1CCOCC1` (centres unmarked) [Compound 234, 2-(2-(2-((3-(3,4-dihydroisoquinolin-2(1H)-yl)-2-hydroxypropyl)amino)pyridin-4-yl)-7H-pyrrolo[2,3-d]pyrimidin-7-yl)-1-morpholinoethanone] as the compound, how does the pIC50 read?
**A.** > 7.00

**Q.** How did the pIC50 turn out when `Cn1cc2ccc(-c3ccnc(NCC(O)CN4CCc5ccccc5C4)c3)cc2n1` (centres unmarked) [Compound 236] was run?
**A.** > 7.00

**Q.** How did the pIC50 turn out when `Cn1cnc2ccc(-c3ccnc(NCC(O)CN4CCc5ccccc5C4)c3)nc21` (centres unmarked) [Compound 238, 1-(3,4-dihydroisoquinolin-2(1H)-yl)-3-((4-(3-methyl-3H-imidazo[4,5-b]pyridin-5-yl)pyridin-2-yl)amino)propan-2-ol] was run?
**A.** > 7.00

**Q.** With `Cn1ccc2cnc(-c3ccnc(NCC(O)CN4CCc5ccccc5C4)c3)nc21` (centres unmarked) [Compound 239, 1-(3,4-dihydroisoquinolin-2(1H)-yl)-3-((4-(7-methyl-7H-pyrrolo[2,3-d]pyrimidin-2-yl)pyridin-2-yl)amino)propan-2-ol] as the compound, how does the pIC50 read?
**A.** > 7.00

**Q.** `OC(CNc1cc(-c2ccc3ncn(C4CCNC4)c3c2)ccn1)CN1CCc2ccccc2C1` (centres unmarked) [Compound 240] was tested. Which pIC50 did it give?
**A.** > 7.00

**Q.** `OC(CNc1cc(-c2ccc3ncn(C4CCNCC4)c3c2)ccn1)CN1CCc2ccccc2C1` (centres unmarked) [Compound 241] was tested. Which pIC50 did it give?
**A.** > 7.00

**Q.** With `CNC(=O)Cn1ccc2cnc(-c3ccnc(NCC(O)CN4CCc5ccccc5C4)c3)nc21` (centres unmarked) [Compound 245] as the compound, how does the pIC50 read?
**A.** > 7.00

**Q.** `O=C(Cn1ccc2cnc(-c3ccnc(NCC(O)CN4CCc5ccccc5C4)c3)nc21)N1CCCCC1` (centres unmarked) [Compound 246] was tested. Which pIC50 did it give?
**A.** > 7.00

**Q.** `CN1CCN(C(=O)Cn2ccc3cnc(-c4ccnc(NCC(O)CN5CCc6ccccc6C5)c4)nc32)CC1` (centres unmarked) [Compound 247] was tested. Which pIC50 did it give?
**A.** > 7.00

**Q.** With `CN1CCC(n2cnc3ccc(-c4ccnc(NCC(O)CN5CCc6ccccc6C5)c4)cc32)C1` (centres unmarked) [Compound 250] as the compound, how does the pIC50 read?
**A.** > 7.00

**Q.** `OC(CNc1cc(-c2ccc3ncn(C4CCOCC4)c3c2)ccn1)CN1CCc2ccccc2C1` (centres unmarked) [Compound 251, 1-(3,4-dihydroisoquinolin-2(1H)-yl)-3-((4-(1-(tetrahydro-2H-pyran-4-yl)-1H-benzo[d]imidazol-6-yl)pyridin-2-yl)amino)propan-2-ol] was tested. Which pIC50 did it give?
**A.** > 7.00

**Q.** With `CN1CCC(n2cnc3ccc(-c4ccnc(NCC(O)CN5CCc6ccccc6C5)c4)cc32)CC1` (centres unmarked) [Compound 252] as the compound, how does the pIC50 read?
**A.** > 7.00

**Q.** How did the pIC50 turn out when `OC(COc1cccc(-c2ncc3ccn(C4CCNCC4)c3n2)c1)CN1CCc2ccccc2C1` (centres unmarked) [Compound 253] was run?
**A.** > 7.00

**Q.** How did the pIC50 turn out when `OC(CNc1cc(-c2ncc3ccn(C4CNC4)c3n2)ccn1)CN1CCc2ccccc2C1` (centres unmarked) [Compound 254] was run?
**A.** > 7.00

**Q.** How did the pIC50 turn out when `OC(CNc1cc(-c2ncc3ccn(C4CCNCC4)c3n2)ccn1)CN1CCc2ccccc2C1` (centres unmarked) [Compound 255] was run?
**A.** > 7.00

**Q.** With `CC(=O)N1CCC(n2ccc3cnc(-c4ccnc(NCC(O)CN5CCc6ccccc6C5)c4)nc32)CC1` (centres unmarked) [Compound 256] as the compound, how does the pIC50 read?
**A.** > 7.00

**Q.** `O[C@@H](COc1cccc(-c2cccc3cccnc23)c1)CN1CCc2ccccc2C1` [Compound 257, (R)-1-(3,4-dihydroisoquinolin-2(1H)-yl)-3-(3-(quinolin-8-yl)phenoxy)propan-2-ol] was tested. Which pIC50 did it give?
**A.** > 7.00

**Q.** With `O[C@H](COc1cccc(-c2cccc3cccnc23)c1)CN1CCc2ccccc2C1` [Compound 258, (S)-1-(3,4-dihydroisoquinolin-2(1H)-yl)-3-(3-(quinolin-8-yl)phenoxy)propan-2-ol] as the compound, how does the pIC50 read?
**A.** 6.00 to 7.00

**Q.** `Cn1cncc1C(=O)Nc1cccc(OC[C@H](O)CN2CCc3ccccc3C2)c1` [Compound 259] was tested. Which pIC50 did it give?
**A.** 6.00 to 7.00

**Q.** How did the pIC50 turn out when `Cn1cncc1C(=O)Nc1cccc(OC[C@@H](O)CN2CCc3ccccc3C2)c1` [Compound 260] was run?
**A.** 5.00 to 6.00

**Q.** With `Cn1cc2ccc(-c3cccc(NCC(O)CN4CCc5ccccc5C4)c3)nc2n1` (centres unmarked) [Compound 261] as the compound, how does the pIC50 read?
**A.** > 7.00

**Q.** How did the pIC50 turn out when `OC(CNc1cc(-c2ccc3ncn(C4COC4)c3c2)ccn1)CN1CCc2ccccc2C1` (centres unmarked) [Compound 265] was run?
**A.** > 7.00
